We go through 1 compound from patent US20060205938A1, “Monohydrate solvates of loracarbef” (priority 2002, published 2006).

The structures appear in SMILES notation.

The nature of data set [1]: Bulk density of crystalline loracarbef monohydrate. In kind it is physicochemical.
The conditions of data set [2]: fine, fluffy powder obtained by the process disclosed in EP 0,369,686; cited from earlier work.

On to `N[C@@H](C(=O)N[C@@H]1C(=O)N2C(C(=O)O)=C(Cl)CC[C@H]12)c1ccccc1.O` [crystalline loracarbef monohydrate, (6R,7S)-7-[(R)-2-amino-2-phenylacetamido]-3-chloro-8-oxo-1-azabicyclo [4.2.0]oct-2-ene-carboxylic acid, monohydrate], for which the bulk density result in data set [1] (crystalline monohydrate prepared from mono N,N-dimethylacetamide monohydrate solvate (Example 2)) was “greater than 0.6 g/ml”; in data set [1] (crystalline monohydrate prepared from mono N-methyl pyrrolidone monohydrate solvate (Example 4)), “greater than 0.6 g/ml”; in data set [1] (monohydrate prepared from mono N,N-dimethylacetamide monohydrate solvate or mono N-methylpyrrolidone monohydrate solvate), no less than 0.6 g/mL. Besides, in data set [2], the density entry is reported as “approximately 0.2 g/ml”.
